Measurements reported in patent publication US20080200490A1, “Alpha-(Aryl-or Heteroaryl-Methyl)-Beta-Piperidino Propanamide Compounds as Orl-1-Receptor Antagonists” (PFIZER INC., priority 2005, published 2008).
Where a name gives a salt, the structure may show the parent alone. Read-outs that look alike come from different tables or passages of the source.

How the values were obtained:
human ORL1 receptor = biological target: T1, human ORL1 receptor (Homo sapiens, UniProt P41146); test: ORL1-Receptor Binding Assay; conditions: [3H]nociceptin, human ORL1 receptor transfected HEK-293 cell membranes
T1 construct: purchased PerkinElmer; host or cells: HEK-293 cells transfected with human ORL1 receptor (membranes)
T1 sequence (P41146 whole entry): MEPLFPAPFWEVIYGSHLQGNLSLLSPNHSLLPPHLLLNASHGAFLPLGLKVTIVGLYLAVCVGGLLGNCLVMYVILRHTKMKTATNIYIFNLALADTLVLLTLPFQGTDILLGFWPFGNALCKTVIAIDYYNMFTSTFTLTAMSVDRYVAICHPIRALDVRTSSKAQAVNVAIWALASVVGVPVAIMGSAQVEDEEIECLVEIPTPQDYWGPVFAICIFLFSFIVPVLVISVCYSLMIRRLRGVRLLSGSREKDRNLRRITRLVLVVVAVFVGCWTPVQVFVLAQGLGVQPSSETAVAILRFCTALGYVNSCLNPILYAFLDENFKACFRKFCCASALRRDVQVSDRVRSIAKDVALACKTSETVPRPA
Protocol: The human ORL1 receptor transfected HEK-293 cell membranes (PerkinElmer) were incubated for 45 min at room temperature with 0.4 nM [^3H]nociceptin, 1.0 mg of wheat germ agglutinin(WGA)-coated SPA beads and various concentrations of test compounds in a final volume of 200 μL of 50 mM HEPES buffer pH 7.4 containing 10 mM MgCl2 and 1 mM EDTA. Non-specific binding (NSB) was determined by the addition of 1 μM unlabeled nociceptin. After the reaction, the assay plate was centrifuged at 1,000 rpm for 1 min and then the radioactivity was measured by WALLAC 1450 MicroBeta Trilux.
The compounds of the examples were tested in the ORL1 Receptor Binding assay.

HERG = biological target: T2, HERG (Homo sapiens, UniProt Q12809); type: binding
T2 construct: expressed in transfected cells; host or cells: HEK-293
T2 sequence (Q12809 whole entry): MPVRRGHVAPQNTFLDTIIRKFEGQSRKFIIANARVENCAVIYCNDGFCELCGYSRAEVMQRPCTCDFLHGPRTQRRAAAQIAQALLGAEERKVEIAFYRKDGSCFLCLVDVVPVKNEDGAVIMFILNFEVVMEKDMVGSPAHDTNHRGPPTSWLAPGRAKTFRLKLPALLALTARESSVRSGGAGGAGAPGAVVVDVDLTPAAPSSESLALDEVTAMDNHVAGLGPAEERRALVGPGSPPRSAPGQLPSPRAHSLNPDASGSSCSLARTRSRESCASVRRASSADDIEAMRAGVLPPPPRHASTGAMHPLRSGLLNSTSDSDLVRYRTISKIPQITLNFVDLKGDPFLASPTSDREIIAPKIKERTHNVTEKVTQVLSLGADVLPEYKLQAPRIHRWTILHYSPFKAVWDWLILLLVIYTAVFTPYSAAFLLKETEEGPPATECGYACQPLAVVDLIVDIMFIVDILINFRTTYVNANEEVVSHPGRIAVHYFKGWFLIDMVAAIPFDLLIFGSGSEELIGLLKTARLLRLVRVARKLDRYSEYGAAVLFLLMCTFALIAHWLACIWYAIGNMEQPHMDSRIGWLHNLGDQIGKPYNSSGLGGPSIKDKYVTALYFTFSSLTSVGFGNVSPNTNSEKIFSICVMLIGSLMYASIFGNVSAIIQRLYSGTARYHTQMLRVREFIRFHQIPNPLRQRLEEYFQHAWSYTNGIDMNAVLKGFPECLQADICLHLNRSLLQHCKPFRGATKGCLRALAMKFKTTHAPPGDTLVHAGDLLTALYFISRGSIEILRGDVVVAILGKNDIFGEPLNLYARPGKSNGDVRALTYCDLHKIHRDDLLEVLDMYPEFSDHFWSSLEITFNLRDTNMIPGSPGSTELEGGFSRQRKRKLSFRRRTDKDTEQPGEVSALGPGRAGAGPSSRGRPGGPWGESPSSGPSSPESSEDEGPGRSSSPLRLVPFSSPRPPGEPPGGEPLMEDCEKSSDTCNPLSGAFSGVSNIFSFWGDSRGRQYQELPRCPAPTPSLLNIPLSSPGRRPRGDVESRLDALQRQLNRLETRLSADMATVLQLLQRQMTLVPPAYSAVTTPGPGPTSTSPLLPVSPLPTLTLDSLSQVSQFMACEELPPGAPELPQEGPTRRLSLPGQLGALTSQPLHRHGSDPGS
Protocol: Cell paste of HEK-293 cells expressing the HERG product was suspended in 10-fold volume of 50 mM Tris buffer adjusted at pH 7.5 at 25° C. with 2 M HCl containing 1 mM MgCl2, 10 mM KCl. The cells were homogenized using a Polytron homogenizer (at the maximum power for 20 seconds) and centrifuged at 48,000 g for 20 minutes at 4° C. The pellet was resuspended, homogenized and centrifuged once more in the same manner. The resultant supernatant was discarded and the final pellet was resuspended (10-fold volume of 50 mM Tris buffer) and homogenized at the maximum power for 20 seconds. The membrane homogenate was aliquoted and stored at −80° C. until use. An aliquot was used for protein concentration determination using a Protein Assay Rapid Kit and ARVO SX plate reader (Wallac). […] Saturation was determined by incubating 20 μl of [^3H]-dofetilide and 160 μl of membrane homogenates (20-30 μg protein per well) for 60 min at room temperature in the absence or presence of 10 μM dofetilide at final concentrations (20 μl) for total or nonspecific binding, respectively. […] Receptor-bound radioactivity was quantified by liquid scintillation counting using Packard LS counter.
For the competition assay, compounds were diluted in 96 well polypropylene plates as 4-point dilutions in semi-log format. […] Receptor-bound radioactivity was quantified by counting Wallac MicroBeta plate counter. […]

| SMILES | Ki (human ORL1 receptor; read-out: Ki) [nM] | also measured |
| --- | --- | --- |
| CN(C)C(=O)C(CN1C2CCC1CC1(C2)OCc2ccc(F)cc21)Cn1cccn1 (single isomer, unassigned) [Example 8, 3-(6′-FLUORO-3′H,8H-SPIRO[8-AZABICYCLO[3.2.1]OCTANE-3,1′-[2]BENZOFURAN]-8-YL)-N,N-DIMETHYL-2-(1H-PYRAZOL-1-YLMETHYL)P[…], CITRATE] | 2.6 | – |
| CN(C)C(=O)C(CN1C2CCC1CC1(C2)OCc2ccccc21)Cn1cccn1 (single isomer, unassigned; (+)) [Example 3, (+)-N,N-DIMETHYL-3-(1H-PYRAZOL-1-YL)-2-(3′H,8H-SPIRO[8-AZABICYCLO[3.2.1]OCTANE-3,1′-[2]BENZOFURAN]-8-YLMETHYL)P[…], CITRATE] | 2 | – |
| CN(C)C(=O)C(CN1C2CCC1CC1(C2)OCCc2cc(F)ccc21)Cn1cccn1 (single isomer, unassigned; (+)) [Example 12, (+)-3-(6′-FLUORO-3′,4′-DIHYDRO-8H-SPIRO[8-AZABICYCLO[3.2.1]OCTANE-3,1′-ISOCHROMEN]-8-YL)-N,N-DIMETHYL-2-(1H-PYRAZOL-1-YLMETHYL)P[…], CITRATE] | 140 | – |
| CN(C)C(=O)C(CN1C2CCC1CC1(C2)OCc2ccc(F)cc21)Cn1cccn1 (single isomer, unassigned; (-)) [Example 7, (−)-3-(6′-FLUORO-3′H,8H-SPIRO[8-AZABICYCLOr3.2.1]OCTANE-3,1′-[2]BENZOFURAN]-8-YL)-N,N-DIMETHYL-2-(1H-PYRAZOL-1-YLMETHYL)PROPANAMIDE] | 3.6 | – |
| CN(C)C(=O)C(CN1C2CCC1CC1(C2)OCCc2cc(F)ccc21)Cn1cccn1 (single isomer, unassigned; (-)) [Example 13, (−)-3-(6′-FLUORO-3′,4′-DIHYDRO-8H-SPIRO[8-AZABICYCLO[3.2.1]OCTANE-3,1′-ISOCHROMEN]-8-YL)-N,N-DIMETHYL-2-(1H-PYRAZOL-1-YLMETHYL)PROPANAMIDE] | 1 | – |
| CN1C(=O)C(CN2CCC3(CCc4ccccc43)CC2)Cc2ccccc21 (stereo not drawn) [Compound (I)] | – | activity in the dofetilide binding assay (HERG): potent activity |
| CN(C)C(=O)C(Cc1cscn1)CN1C2CCC1CC1(C2)OCc2ccccc21 (stereo not drawn) [Example 1, N,N-DIMETHYL-3-(3′H,8H-SPIRO[8-AZABICYCLO[3.2.1]OCTANE-3,1′-[2]BENZOFURAN]-8-YL)-2-(1,3-THIAZOL-4-YLMETHYL)P[…], CITRATE] | – | Ki (human ORL1 receptor; Ki): 1.8 nM |
| CN(C)C(=O)C(CN1C2CCC1CC1(C2)OCc2ccccc21)Cn1cccn1 (stereo not drawn) [Example 2, N,N-DIMETHYL-3-(1H-PYRAZOL-1-YL)-2-(3′H,8H-SPIRO[8-AZABICYCLO[3.2.1]OCTANE-3,1′-[2]BENZOFURAN]-8-YLMETHYL)P[…], CITRATE] | 2.4 | – |
| CN(C)C(=O)C(CN1C2CCC1CC1(C2)OCc2ccc(F)cc21)Cn1cccn1 (stereo not drawn) [Example 5, 3-(6′-FLUORO-3′H,8H-SPIRO[8-AZABICYCLO[3.2.1]OCTANE-3,1′-[2]BENZOFURAN]-8-YL)-N,N-DIMETHYL-2-(1H-PYRAZOL-1-YLMETHYL)P[…], CITRATE] | 3.6 | – |
| CN(C)C(=O)C(Cc1cscn1)CN1C2CCC1CC1(C2)OCc2ccc(F)cc21 (stereo not drawn) [Example 9, 3-(6′-FLUORO-3′H,8H-SPIRO[8-AZABICYCLO[3.2.1]OCTANE-3,1′-[2]BENZOFURAN]-8-YL)-N,N-DIMETHYL-2-(1,3-THIAZOL-4-YLMETHYL) P[…]] | 3.8 | – |
| CN(C)C(=O)C(CN1C2CCC1CC1(C2)OCCc2ccccc21)Cn1cccn1 (stereo not drawn) [Example 10, 3-(3′,4′-DIHYDRO-8H-SPIRO[8-AZABICYCLO[3.2.1]OCTANE-3,1′-ISOCHROMEN]-8-YL)-N,N-DIMETHYL-2-(1H-PYRAZOL-1-YLMETHYL)P[…], CITRATE] | 7.2 | – |
| CN(C)C(=O)C(CN1C2CCC1CC1(C2)OCCc2cc(F)ccc21)Cn1cccn1 (stereo not drawn) [Example 11, 3-(6′-FLUORO-3′,4′-DIHYDRO-8H-SPIRO[8-AZABICYCLO[3.2.1]OCTANE-3,1′-ISOCHROMEN]-8-YL)—N,N-DIMETHYL-2-(1H-PYRAZOL-1-YLMETHYL)P[…], CITRATE] | 1.3 | – |
